Values of other authors in patent US8025907B2, “Cosmetic composition to accelerate repair of functional wrinkles” (priority 2005, dated 2011).

Legend:
[1] = system: forehead expression lines; conditions: 28 days
[2] = system: wrinkles

Substance | reduction of forehead expression lines [1] | wrinkle depth reduction by the hexapeptide component ([2]; after thirty days, after factoring the influence of the cosmetic base ingredient) | time before a visible reduction in wrinkles can occur ([2]; on average)
Dipeptide Diaminobutyroyl Benzalamide Diacetate | up to 52% | – | –
acetyl hexapeptide-3 | – | less than 30% | up to 30 days
